Reference: patent US20200392116A1, “SUBSTITUTED HETEROCYCLES AS c-MYC TARGETING AGENTS” (NORTHWESTERN UNIVERSITY, priority 2019, published 2020)

test: Potency code of Table 2 (assay not stated)

Question: Which Potency code does the source give for COc1ccc(-c2cn(C)nc2-c2ccc(OCc3ccc(Cl)cc3)cc2O)cc1 [NUCC-0198305] here?
Answer: The Potency code was “+ (>40 +)”.

Question: Which Potency code does the source give for CCc1ccc(Oc2cn(C)nc2-c2ccc(OCc3ccc(Cl)cc3)cc2O)cc1 [NUCC-0176260] here?
Answer: Its Potency code is “+ (>40 +)”.

Question: With Cc1c(-c2ccccc2)c(-c2ccc(OCc3ccc(Cl)cc3)cc2O)nn1C [NUCC-0198300] as the compound, how does the Potency code read?
Answer: Its Potency code is “+ (>40 +)”.

Question: Which Potency code does the source give for COc1ccc(-c2cc(C(F)(F)F)nn2C)c(O)c1-c1cc(C(F)(F)F)cc(C(F)(F)F)c1 [NUCC-0201222] here?
Answer: Its Potency code is “+++ (10-30 +++)”.

Question: With CCCCOc1ccc(-c2cc(C(F)(F)F)n(C)n2)c(O)c1-c1cc(C(F)(F)F)cc(C(F)(F)F)c1 [NUCC-0201652] as the compound, how does the Potency code read?
Answer: Its Potency code is “+ (>40 +)”.

Question: Which Potency code does the source give for CCCCCCOc1ccc(-c2cc(C(F)(F)F)n(C)n2)c(O)c1-c1cncc(C(F)(F)F)c1 [NUCC-0201210] here?
Answer: The Potency code was “+ (>40 +)”.

Question: With Cn1nc(-c2ccc(OCc3ccc(Cl)cc3)c(-c3ccc(C(F)(F)F)cc3)c2O)cc1C(F)(F)F [NUCC-0200727] as the compound, how does the Potency code read?
Answer: Its Potency code is “+ (>40 +)”.

Question: For Cc1ccc(-c2c(OCc3ccc(Cl)cc3)ccc(-c3cc(C(F)(F)F)[nH]n3)c2O)cc1 [NUCC-0196344], which Potency code is on record?
Answer: The Potency code was “+++ (10-30 +++)”.

Question: For CCCCCCOc1ccc(-c2cc(C(F)(F)F)n[nH]2)c(O)c1-c1cncc(C#N)c1 [NUCC-0201194], which Potency code is on record?
Answer: The Potency code was “+ (>40 +)”.

Question: For CCc1ccc(Oc2c[nH]nc2-c2ccc(OCc3cnn(C)c3)cc2O)cc1 [NUCC-0176246], which Potency code is on record?
Answer: The Potency code was “+ (>40 +)”.

Question: With COc1ccccc1-c1c[nH]nc1-c1ccc(OCc2ccc(Cl)cc2)cc1O [NUCC-0198357] as the compound, how does the Potency code read?
Answer: Its Potency code is “+ (>40 +)”.

Question: With Cn1nc(-c2ccc(OCc3ccc(C#N)cc3)c(-c3ccc(Cl)c(C(F)(F)F)c3)c2O)cc1C(F)(F)F [NUCC-0201912] as the compound, how does the Potency code read?
Answer: The Potency code was “+ (>40 +)”.

Question: Which Potency code does the source give for Oc1cc(OCc2ccc(Cl)cc2)ccc1-c1cc(C(F)(F)F)nc(-c2cccc(C(F)(F)F)c2)n1 [NUCC-0200500] here?
Answer: The Potency code was “+ (>40 +)”.

Question: For NC(=O)c1cc(-c2ccc(Nc3ccc(Cl)cc3)cc2O)n[nH]1 [NUCC-0200677], which Potency code is on record?
Answer: Its Potency code is “+ (>40 +)”.

Question: With Cn1nc(C(F)(F)F)cc1-c1ccc(OCc2ccc(Cl)cc2)cc1F [NUCC-0200977] as the compound, how does the Potency code read?
Answer: The Potency code was “+ (>40 +)”.

Question: With Cn1nc(C(F)(F)F)cc1-c1ccc(OCc2ccc(Cl)cc2)cc1N [NUCC-0200745] as the compound, how does the Potency code read?
Answer: The Potency code was “+ (>40 +)”.

Question: For Nc1ccc(COc2ccc(-c3cc(C(F)(F)F)n[nH]3)c(O)c2-c2cncc(C(F)(F)F)c2)cc1 [NUCC-0201661], which Potency code is on record?
Answer: Its Potency code is “+ (>40 +)”.

Question: For Cn1nc(-c2ccc(OCCCNC(=O)OC(C)(C)C)c(-c3cncc(C(F)(F)F)c3)c2O)cc1C(F)(F)F [NUCC-0201656], which Potency code is on record?
Answer: The Potency code was “+ (>40 +)”.

Question: Which Potency code does the source give for NCCCOc1ccc(-c2cc(C(F)(F)F)n[nH]2)c(O)c1-c1ccc(Cl)c(C(F)(F)F)c1 [NUCC-0201646] here?
Answer: Its Potency code is “+ (>40 +)”.

Question: For Cn1cc(-c2cccc(Cl)c2)c(-c2ccc(OCc3ccc(Cl)cc3)cc2O)n1 [NUCC-0196351], which Potency code is on record?
Answer: The Potency code was “+ (>40 +)”.

Question: With Cn1nc(-c2ccc(OCc3ccc(Cl)cc3)c(-c3ccc(C#N)cc3)c2O)cc1C(F)(F)F [NUCC-0198393] as the compound, how does the Potency code read?
Answer: Its Potency code is “+ (>40 +)”.

Question: Which Potency code does the source give for CC(C)CCOc1ccc(-c2cc(C(F)(F)F)n(C)n2)c(O)c1-c1cncc(C(F)(F)F)c1 [NUCC-0201211] here?
Answer: The Potency code was “+ (>40 +)”.

Question: With CCc1[nH]nc(-c2ccc(OCc3ccc(Cl)cc3)cc2O)c1-c1cccc(OC)c1 [NUCC-0198315] as the compound, how does the Potency code read?
Answer: The Potency code was “+ (>40 +)”.

Question: For Oc1c(-c2cc(C(F)(F)F)[nH]n2)ccc(OCc2ccc(Cl)cc2)c1-c1ccc(C(F)(F)F)c(Cl)c1 [NUCC-0200728], which Potency code is on record?
Answer: The Potency code was “+ (>40 +)”.

Question: For CCCCCCOc1ccc(-c2cc(C(F)(F)F)n(C)n2)c(O)c1-c1cncc(C#N)c1 [NUCC-0201212], which Potency code is on record?
Answer: The Potency code was “+ (>40 +)”.

Question: With CCc1ccc(Oc2c(-c3ccc(Oc4ccc(Cl)cc4)cc3O)n[nH]c2C(F)(F)F)cc1 [NUCC-0200681] as the compound, how does the Potency code read?
Answer: Its Potency code is “++++ (<10 ++++)”.

Question: For Oc1cc(OCc2ccc(Cl)cc2)ccc1-c1n[nH]cc1Oc1ccc(Cl)cc1 [NUCC-0196303], which Potency code is on record?
Answer: Its Potency code is “+ (>40 +)”.

Question: For COc1cccc(-c2c(-c3ccc(OCc4ccc(Cl)cc4)cc3O)n[nH]c2C)c1 [NUCC-0198312], which Potency code is on record?
Answer: Its Potency code is “+ (>40 +)”.

Question: With COc1ccc(-c2c(-c3ccc(OCc4ccc(Cl)cc4)cc3O)n[nH]c2C(F)(F)F)cc1OC [NUCC-0196283] as the compound, how does the Potency code read?
Answer: Its Potency code is “++++ (<10 ++++)”.

Question: With Oc1c(-c2cc(C(F)(F)F)[nH]n2)ccc(OCc2ccc(Cl)cc2)c1-c1cccnc1 [NUCC-0196366] as the compound, how does the Potency code read?
Answer: The Potency code was “+ (>40 +)”.

Question: For CC(C)CCOc1ccc(-c2cc(C(F)(F)F)[nH]n2)c(O)c1-c1ccc(Cl)c(C(F)(F)F)c1 [NUCC-0201634], which Potency code is on record?
Answer: The Potency code was “++ (30-40 ++)”.

Question: For CCCc1c(OCc2ccc(Cl)cc2)ccc(-c2cc(C(F)(F)F)n[nH]2)c1O [NUCC-0200740], which Potency code is on record?
Answer: Its Potency code is “+ (>40 +)”.

Question: Which Potency code does the source give for Cc1ccc(-c2c[nH]nc2-c2ccc(OCc3ccc(Cl)cc3)cc2O)cc1 [NUCC-0196345] here?
Answer: Its Potency code is “+ (>40 +)”.

Question: For Cn1cc(-c2ccc(OCc3ccc(Cl)cc3)cc2Cl)c(C(F)(F)F)n1 [NUCC-0200814], which Potency code is on record?
Answer: Its Potency code is “+ (>40 +)”.

Question: With Cn1nc(-c2ccc(OCc3ccc(Cl)cc3)c(-c3cccc(C#N)c3)c2O)cc1C(F)(F)F [NUCC-0198400] as the compound, how does the Potency code read?
Answer: The Potency code was “+ (>40 +)”.

Question: With Cn1cc(-c2ccccc2)c(-c2ccc(OCc3ccc(Cl)cc3)cc2O)n1 [NUCC-0198294] as the compound, how does the Potency code read?
Answer: The Potency code was “+ (>40 +)”.

Question: With COc1cccc(-c2c(C)nn(C)c2-c2ccc(OCc3ccc(Cl)cc3)cc2O)c1 [NUCC-0198313] as the compound, how does the Potency code read?
Answer: The Potency code was “+ (>40 +)”.

Question: With Cn1nc(C(F)(F)F)cc1-c1ccc(NC(=O)c2ccc(Cl)cc2)cc1O [NUCC-0200817] as the compound, how does the Potency code read?
Answer: The Potency code was “+ (>40 +)”.

Question: For COc1cccc(-c2c(-c3ccc(OCc4ccc(Cl)cc4)cc3O)nn(C)c2C)c1 [NUCC-0198314], which Potency code is on record?
Answer: Its Potency code is “+ (>40 +)”.

Question: With C#CCC(N=[N+]=[N-])C(=O)Nc1ccc(COc2ccc(-c3cc(C(F)(F)F)n(C)n3)c(O)c2-c2cncc(C(F)(F)F)c2)cc1 (stereo not drawn) [NUCC-0201699] as the compound, how does the Potency code read?
Answer: The Potency code was “+ (>40 +)”.

Question: With CN/N=C(/C)c1ccc(-c2c(OCc3ccc(Cl)cc3)ccc(-c3cc(C(F)(F)F)nn3C)c2O)cc1 [NUCC-0198396] as the compound, how does the Potency code read?
Answer: The Potency code was “+ (>40 +)”.

Question: Which Potency code does the source give for Cn1nc(C(F)(F)F)cc1-c1ccc(N)cn1 [NUCC-0200688] here?
Answer: Its Potency code is “+ (>40 +)”.

Question: With Cn1nc(C(F)(F)F)cc1-c1ccc(OCCCNC(=O)OC(C)(C)C)c(-c2ccc(Cl)c(C(F)(F)F)c2)c1O [NUCC-0201657] as the compound, how does the Potency code read?
Answer: The Potency code was “+ (>40 +)”.

Question: With Oc1c(-c2cc(C(F)(F)F)n[nH]2)ccc(OCc2ccc(Cl)cc2)c1-c1ccc2c(c1)OCCO2 [NUCC-0200686] as the compound, how does the Potency code read?
Answer: Its Potency code is “+ (>40 +)”.

Question: With Oc1cc(OCc2ccc(Cl)cc2)ccc1-c1cc(C(F)(F)F)nc(-c2ccc(F)cc2)n1 [NUCC-0200503] as the compound, how does the Potency code read?
Answer: The Potency code was “+ (>40 +)”.

Question: Which Potency code does the source give for Cn1nc(C(F)(F)F)cc1-c1ccc(OCc2ccc(Cl)cc2)c(-c2cncc(C#N)c2)c1O [NUCC-0201632] here?
Answer: The Potency code was “+++ (10-30 +++)”.

Question: Which Potency code does the source give for Oc1cc(OCc2ccc(Cl)cc2)ccc1-c1cc(C(F)(F)F)nc(-c2cc(C(F)(F)F)cc(C(F)(F)F)c2)n1 [NUCC-0200501] here?
Answer: The Potency code was “+ (>40 +)”.

Question: Which Potency code does the source give for COc1ccc(COc2ccc(-c3cc(C(F)(F)F)nn3C)c(O)c2-c2cc(C(F)(F)F)cc(C(F)(F)F)c2)cc1 [NUCC-0201042] here?
Answer: The Potency code was “+ (>40 +)”.

Question: Which Potency code does the source give for Cn1nc(C(F)(F)F)cc1-c1ccc(OCc2ccc(Cl)cc2)c(-c2ccc(F)c(C(F)(F)F)c2)c1O [NUCC-0200735] here?
Answer: The Potency code was “+ (>40 +)”.

Question: With CCCCOc1ccc(-c2cc(C(F)(F)F)n[nH]2)c(O)c1-c1cncc(C#N)c1 [NUCC-0201193] as the compound, how does the Potency code read?
Answer: The Potency code was “++++ (<10 ++++)”.

Question: For CCc1ccc(Oc2c[nH]nc2-c2ccc(OCCc3ccc(Cl)cc3)cc2O)cc1 [NUCC-0176261], which Potency code is on record?
Answer: Its Potency code is “+ (>40 +)”.
